The values below come from publication PMC10044120, “Potent and selective covalent inhibition of the papain-like protease from SARS-CoV-2” (Nature Communications, 2023).

Values joined by “and” are separate entries in the source; they are usually repeats but may differ in a detail not shown here. Equal values may be shown once. Read-outs that look alike come from different tables or passages of the source.

The target of data set [1] is T1, PLpro from SARS-CoV-2 (Severe acute respiratory syndrome coronavirus 2, UniProt P0DTD1). Briefly: biochemical. The format is biochemical. As to conditions: for remaining activity at 0.06 µM: inhibitor 0.06 uM; for remaining activity at 0.2 µM: inhibitor 0.20 uM; for IC50: after 30-min incubation; for remaining activity at 0.02 µM: inhibitor 0.02 uM; for remaining activity at 2.01 µM: inhibitor 2.01 uM; for remaining activity at 6.34 µM: inhibitor 6.34 uM.

Data set [2] concerns the target T1, PLpro from SARS-CoV-2. Put plainly: biochemical. The format is biochemical. Further details: mean (kobs plot, Supplementary Figure 6 II): unit: min^-1.
The target of data set [3] is PLpro (Severe acute respiratory syndrome coronavirus 2, UniProt P0DTD1). Put plainly: Intact protein ESI-MS to assess covalent adduct formation. The format is binding, SARS-CoV-2. The arrangement: unit not given here.
Data set [4] relates to SARS-CoV-2 isolate USA-WA1/2020. Particulars: read-out: cytopathic effect, % cell viability, duplicate wells. (In general: Damage to the host cells serves as the signal in cytopathic effect assays.)
In data set [5] the test system is Vero E6 cells. Particulars: African green monkey, 48 h.
The nature of data set [6]: in vitro. As to conditions: African green monkey, cytotoxicity, %cell viability.
Data set [7] deals with SARS-CoV-2 isolate USA-WA1/2020. Briefly: microbe, parasite or virus in culture. Particulars: for inhibition at 2.08 µM: Severe acute respiratory syndrome coronavirus 2, Vero C1008, read-out: cytopathic effect, % cell viability, [inhibitor] 2.08 uM.
In data set [8] the test system is viral replication in Vero E6 cells. As to conditions: cited from earlier work.
Data set [9] is described as follows: Metabolic stability in rat liver microsomes. Particulars: Sprague-Dawley. (In general: Liver microsomes are vesicles of endoplasmic reticulum, rich in cytochrome P450 enzymes.)
The nature of data set [10]: Metabolic stability in rat liver S9 fraction. As to conditions: Sprague-Dawley.
Data set [11] is described as follows: Metabolic stability in human liver microsomes.
The nature of data set [12]: Metabolic stability in mouse liver microsomes. Particulars: CD-1, mouse.
A short description of data set [13]: Metabolic stability in human liver S9 fraction.
Data set [14] is described as follows: Metabolic stability in mouse liver S9 fraction. As to conditions: CD-1, mouse.

The term IC50 denotes the concentration at which inhibition is half-maximal. In general, kinact/KI refers to the second-order rate constant of inactivation. One may read the viability as the share of living cells, or the viability signal relative to a control. In the case of `COC(=O)/C=C/C(=O)NNC(=O)CCc1ccc(NC(C)=O)cc1C(=O)N[C@H](C)c1cccc2ccccc12` [Compound 8, methyl-(R,E)-4-(2-(3-(4-acetamido-2-((1-(naphthalen-1-yl)ethyl)carbamoyl)phenyl)propanoyl)hydrazineyl)-4-oxobut-2-enoate], the remaining activity at 0.06 µM in data set [1] (0.5 h) came out at 89.5%. The remaining activity at 0.2 µM in [1] (0.5 h) stood at 57.8%; in [2] (1 h, read-out: PLpro activity after preincubation, inhibitor 0.2 uM, preincubation 60 min) it was 12.6%. In addition, the IC50 in [1] is 0.23 µM. Also, the inactivation efficiency (kinact/KI) in data set [2] was 9000 M⁻¹ s⁻¹. For the same compound, the remaining activity at 0.1 µM is 79.5% in data set [2] (5 min, read-out: PLpro activity after preincubation, inhibitor 0.1 uM, preincubation 5 min); 71.5% in data set [2] (10 min, read-out: PLpro activity after preincubation, inhibitor 0.1 uM, preincubation 10 min); 66.2% in data set [2] (0.5 h, read-out: PLpro activity after preincubation, inhibitor 0.1 uM, preincubation 30 min); 64.4% in data set [2] (1 h, read-out: PLpro activity after preincubation, inhibitor 0.1 uM, preincubation 60 min); 66.3% in data set [2] ([…], read-out: PLpro activity after preincubation, inhibitor 0.1 uM, preincubation 15 min); 72.5% in data set [2] ([…], read-out: PLpro activity after preincubation, inhibitor 0.1 uM, preincubation 45 min). In data set [2] ([…], read-out: PLpro activity after preincubation, inhibitor 0.1 uM, preincubation 90 min), the remaining activity at 0.1 µM came to 44.6%. Moreover, the “Time dep. (time-dependent inhibition)” value in [2] (fluorogenic peptide assay, varied preincubation time) is on record as “Yes”. The “mean (kobs plot, Supplementary Figure 6 II)” value in [2] (inhibitor 0.10 uM) amounted to 0.0091; in [2] (inhibitor 0.20 uM) it was 0.0652. The compound also registered a Measured adduct mass in data set [3] of 531. Moreover, the inhibition in [4] ([inhibitor] 2.08 uM, 2.08 µM) stood at 0.9%; in [4] ([inhibitor] 8.33 uM, 8.33 µM) it was 2.82%. Further, the “cytotoxicity, %cell viability” value is 78.830% in data set [5] (2.08 µM), 82.620% in data set [5] (8.33 µM), 76.260% in [5] (16.67 µM) and 75.370% in [5] (33.33 µM). The compound further yielded a viability at 48 h, 2.08 µM in data set [6] of 83.7%. The viability at 48 h, 8.33 µM in data set [6] is 87.2%. For the same compound, the viability at 48 h, 16.67 µM in data set [6] stood at 82.6%. The compound also came in with a viability at 48 h, 33.33 µM in data set [6] of 75.6%. Further, in data set [7] (duplicate wells), the inhibition at 2.08 µM was 1.22%. Further, the inhibition at 8.33 µM in data set [7] (Severe acute respiratory syndrome coronavirus 2, Vero C1008, read-out: cytopathic effect, % cell viability, [inhibitor] 8.33 uM, duplicate wells) worked out at 4.63%.

Regarding `CC(=O)Nc1ccc(CCC(=O)NNC(=O)CCl)c(C(=O)N[C@H](C)c2cccc3ccccc23)c1` [Compound 10, (R)-5-acetamido-2-(3-(2-(2-chloroacetyl)hydrazineyl)-3-oxopropyl)-N-(1-(naphthalen-1-yl)ethyl)benzamide], in [1] (0.5 h), the remaining activity at 0.02 µM was determined as 90.3%, the remaining activity at 0.06 µM was 102%, the remaining activity at 2.01 µM was found to be 80.3% and the remaining activity at 6.34 µM stood at 37.2%. In data set [1], this compound had a concentration for half-maximal inhibition (IC50) of 4.4 µM. Moreover, in data set [3], the Measured adduct mass stood at 460. Also, in data set [4] ([inhibitor] 2.08 uM, 2.08 µM), the inhibition is 1.32%. Besides, the “cytotoxicity, %cell viability” value in [5] (2.08 µM) worked out at 80.200%. For the same compound, in [5] (8.33 µM), the “cytotoxicity, %cell viability” value is reported as 79.780%. Besides, the “cytotoxicity, %cell viability” value in data set [5] (16.67 µM) was 73.170%. Besides, in [5] (33.33 µM), the “cytotoxicity, %cell viability” value is listed as 66.030%. Further, in data set [6], the viability at 48 h, 2.08 µM is 92.2%; the viability at 48 h, 8.33 µM came out at 84.4%; the viability at 48 h, 16.67 µM amounted to 81.5%; the viability at 48 h, 33.33 µM stood at 73.4%. In addition, the inhibition at 2.08 µM in data set [7] (duplicate wells) came out at 2.2%.

In general, EC50 refers to the concentration that produces a half-maximal response. For orientation: half-life means the time needed for the level to fall by half in the phase considered. The microsomal CLint is the capacity of the preparation to metabolise the compound, expressed as a volume cleared per time. As for `Cc1ccccc1C(=O)N[C@H](C)c1cccc2ccccc12` [Compound 14, (R)-2-methyl-N-(1-(naphthalen-1-yl)ethyl)benzamide], the remaining activity at 0.02 µM in [1] (0.5 h) was determined as 96.3%. Moreover, in data set [1] (0.5 h), the remaining activity at 0.06 µM was 94.2%. The remaining activity at 0.2 µM in data set [1] (0.5 h) stood at 103%. For the same compound, the remaining activity at 2.01 µM in data set [1] (0.5 h) was 90.5%. In data set [1] (0.5 h), the remaining activity at 6.34 µM turned out to be 77.4%. The remaining activity at 20 µM in data set [1] (0.5 h, inhibitor 20.00 uM) was 56.2%. Moreover, in data set [1] (0.5 h, inhibitor 200.00 uM), the remaining activity at 200 µM stood at 40.8%. In addition, in [1], the IC50 was 100 µM. Moreover, the inhibition in [4] ([inhibitor] 2.08 uM, 2.08 µM) was 7.39%; in data set [4] ([inhibitor] 16.65 uM, 16.65 µM), 5.25%. In addition, the results for the “cytotoxicity, %cell viability” value in [5] (2.08 µM), in data set [5] (8.33 µM) and in data set [5] (16.65 µM) were 96.55%, 99.10% and 92.38%, respectively. The EC50 in data set [8] was 10 µM. The compound also came in with a viability at 48 h, 2.08 µM in data set [6] of 100%. In data set [6], this compound showed a viability at 48 h, 8.33 µM of 95.2%. The compound further displayed a viability at 48 h, 16.65 µM in data set [6] of 95.7%. Moreover, in [7] (Severe acute respiratory syndrome coronavirus 2, Vero C1008, read-out: cytopathic effect, % cell viability), the inhibition at […] is 7.92% and 10.7%. Further, in data set [7] (duplicate wells), the inhibition at 2.08 µM was determined as 11.3%. Also, the inhibition at 16.65 µM in data set [7] (Severe acute respiratory syndrome coronavirus 2, Vero C1008, read-out: cytopathic effect, % cell viability, [inhibitor] 16.65 uM, duplicate wells) was 7.05%. In addition, the half-life in [9] was 21 min; in data set [10], 17 min; in [11] it was 41 min; in data set [12] it was 16 min; in data set [13] it was above 60 min; in data set [14], 18 min. Also, the microsomal CLint in [9] was 330 µL/min/mg; in data set [10], 138 µL/min/mg; in [11] it was 171 µL/min/mg; in [12] it was 435 µL/min/mg; in [13], below 38.5 µL/min/mg; in data set [14] it was 128 µL/min/mg.

As for `CC(C)NCC(O)COc1cccc2ccccc12` (centres unmarked) [propranolol, reference compound], the half-life in data set [9] is 3 min; in [10], 3 min; in data set [12], 20 min; in [14], 6 min.
